# In article PMC9649612, “Molecular docking and biochemical validation of (-)-syringaresinol-4-O-β-D-apiofuranosyl-(1→2)-β-D-glucopyranoside binding to an allosteric site in monoamine transporters” (Frontiers in Pharmacology, 2022):
# Key:
# [1] = molecular target: T1, hSERT P499G (S2 site mutant) (Homo sapiens, UniProt P31645, P499G); assay: APP+ transport in HeLa cells expressing hSERT mutant P499G; format: cell-based; conditions: 2 μM APP+ 5 min, intact HeLa cells, read-out: SAG IC50 for transport
# T1 construct: expressed in transfected cells; host or cells: HeLa (ATCC CCL-2), transient, pcDNA3.1
# Experimental: (§1) The mutants used for this study were constructed in the WT background carried by the expression plasmids for hSERT, hDAT, or hNET under the control of CMV promotor in pcDNA3.1 vector, respectively. All mutants were generated using the Mut Express II Fast Mutagenesis Kit (Vazyme) and confirmed by full-length DNA sequencing.
# (§2) HeLa cells were cultured in Dulbecco’s Modified Eagle’s Medium supplemented with 10% fetal bovine serum, 100 units/ml penicillin, and 100 μg/ml streptomycin at 37°C in a humidified 5% CO2 incubator. Cells were plated in a 6-well culture plate and grown overnight. Cells at ∼70% confluence were transfected with hSERT, hDAT, or hNET cDNA in pcDNA3.1 by lipofectamine 2000. […] After grown for additional 12–16 h, the cells were assayed for APP^+ or ASP^+ fluorescence image acquisition.
# (§3) The cells expressing WT or mutants of hSERT, hDAT, or hNET were wet mounted on polylysine coated glass slides in 12-well plates and applied for the indicated treatments. […] The extent of APP^+ accumulated in the cells was determined by confocal imaging analysis. ASP^+ binding to SERT in the cell membrane was measured with digitonin-permeabilized cells ([Li M. et al., 2022a]). […] After removing excess ASP^+ by rapid washing three times, ASP^+ binding was determined by confocal imaging analysis.
# (§4) Images were analyzed using Zen Blue software. […]
# [2] = molecular target: T2, hSERT T497A (S2 site mutant) (Homo sapiens, UniProt P31645, T497A); assay: ASP+ binding in digitonin-permeabilized HeLa cells expressing hSERT T497A; conditions: 10 μM ASP+, read-out: SAG IC50 for binding
# T2 construct: expressed in transfected cells; host or cells: HeLa (ATCC CCL-2), transient, pcDNA3.1
# Experimental: as §1, §2, §3, §4
# [3] = molecular target: T3, hDAT H477Q (S2 site mutant) (Homo sapiens, UniProt Q01959, H477Q); assay: APP+ transport in HeLa cells expressing hDAT mutant H477Q; format: cell-based; conditions: intact HeLa cells, read-out: SAG IC50
# T3 construct: expressed in transfected cells; host or cells: HeLa
# T3 sequence (Q01959 whole entry H477Q): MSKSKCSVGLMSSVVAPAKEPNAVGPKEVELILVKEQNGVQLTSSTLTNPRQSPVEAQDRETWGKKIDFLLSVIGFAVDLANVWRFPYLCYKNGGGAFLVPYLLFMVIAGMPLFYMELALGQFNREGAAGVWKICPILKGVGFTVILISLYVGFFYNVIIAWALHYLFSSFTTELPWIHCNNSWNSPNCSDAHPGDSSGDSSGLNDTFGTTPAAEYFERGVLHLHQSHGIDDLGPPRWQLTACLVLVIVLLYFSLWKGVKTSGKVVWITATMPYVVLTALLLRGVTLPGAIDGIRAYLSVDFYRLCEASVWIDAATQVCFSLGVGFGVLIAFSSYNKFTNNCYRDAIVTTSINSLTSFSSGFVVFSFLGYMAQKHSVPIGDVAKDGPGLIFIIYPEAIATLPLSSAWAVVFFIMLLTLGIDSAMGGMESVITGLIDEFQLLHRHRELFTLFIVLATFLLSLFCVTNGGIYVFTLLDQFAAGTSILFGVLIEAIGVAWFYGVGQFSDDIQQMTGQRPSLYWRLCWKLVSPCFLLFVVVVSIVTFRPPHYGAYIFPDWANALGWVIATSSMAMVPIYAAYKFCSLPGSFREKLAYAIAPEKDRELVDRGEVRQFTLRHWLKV
# Experimental: as §1, §2, §3, §4
# [4] = molecular target: T4, hSERT I327A (S2 site mutant) (Homo sapiens, UniProt P31645, I327A); assay: APP+ transport in HeLa cells expressing hSERT mutant I327A; format: cell-based; conditions: 2 μM APP+ 5 min, intact HeLa cells, read-out: SAG IC50 for transport
# T4 construct: expressed in transfected cells; host or cells: HeLa (ATCC CCL-2), transient, pcDNA3.1
# Experimental: as §1, §2, §3, §4
# [5] = molecular target: T2, hSERT T497A (S2 site mutant); assay: APP+ transport in HeLa cells expressing hSERT mutant T497A; format: cell-based; conditions: 2 μM APP+ 5 min, intact HeLa cells, read-out: SAG IC50 for transport
# Experimental: as §1, §2, §3, §4
# [6] = molecular target: T5, hDAT A480G (S2 site mutant) (Homo sapiens, UniProt Q01959, A480G); assay: APP+ transport in HeLa cells expressing hDAT mutant A480G; format: cell-based; conditions: intact HeLa cells, read-out: SAG IC50
# T5 construct: expressed in transfected cells; host or cells: HeLa
# T5 sequence (Q01959 whole entry A480G): as the sequence (Q01959 whole entry H477Q) above, with Q477H, A480G counted along it
# Experimental: as §1, §2, §3, §4
# [7] = molecular target: T6, WT-hSERT (Homo sapiens, UniProt P31645); assay: ASP+ binding in digitonin-permeabilized HeLa cells expressing WT-hSERT; conditions: 10 μM ASP+ 5 min, 25 μg/ml digitonin-permeabilized HeLa cells, read-out: SAG IC50 for binding
# T6 construct: expressed in transfected cells; host or cells: HeLa (ATCC CCL-2), transient, pcDNA3.1
# Experimental: (§5) HeLa cells were cultured in Dulbecco’s Modified Eagle’s Medium supplemented with 10% fetal bovine serum, 100 units/ml penicillin, and 100 μg/ml streptomycin at 37°C in a humidified 5% CO2 incubator. Cells were plated in a 6-well culture plate and grown overnight. Cells at ∼70% confluence were transfected with hSERT, hDAT, or hNET cDNA in pcDNA3.1 by lipofectamine 2000. Transfected cells were incubated for 24 h at 37°C with 5% CO2 and then transferred into a 12-well plate placed with polylysine coated slides. After grown for additional 12–16 h, the cells were assayed for APP^+ or ASP^+ fluorescence image acquisition.
# as §3
# (§6) Images were analyzed using Zen Blue software.
# (§7) Nonlinear regression fits of experimental and calculated data were performed with Origin (Origin Lab). […]
# [8] = molecular target: T7, WT-hNET (Homo sapiens, UniProt P23975); assay: APP+ transport (uptake) in HeLa cells expressing WT-hNET; format: cell-based; conditions: WT hNET; APP+ transport, intact HeLa cells; read-out: SAG IC50
# T7 construct: expressed in transfected cells; host or cells: HeLa
# T7 sequence (P23975 whole entry): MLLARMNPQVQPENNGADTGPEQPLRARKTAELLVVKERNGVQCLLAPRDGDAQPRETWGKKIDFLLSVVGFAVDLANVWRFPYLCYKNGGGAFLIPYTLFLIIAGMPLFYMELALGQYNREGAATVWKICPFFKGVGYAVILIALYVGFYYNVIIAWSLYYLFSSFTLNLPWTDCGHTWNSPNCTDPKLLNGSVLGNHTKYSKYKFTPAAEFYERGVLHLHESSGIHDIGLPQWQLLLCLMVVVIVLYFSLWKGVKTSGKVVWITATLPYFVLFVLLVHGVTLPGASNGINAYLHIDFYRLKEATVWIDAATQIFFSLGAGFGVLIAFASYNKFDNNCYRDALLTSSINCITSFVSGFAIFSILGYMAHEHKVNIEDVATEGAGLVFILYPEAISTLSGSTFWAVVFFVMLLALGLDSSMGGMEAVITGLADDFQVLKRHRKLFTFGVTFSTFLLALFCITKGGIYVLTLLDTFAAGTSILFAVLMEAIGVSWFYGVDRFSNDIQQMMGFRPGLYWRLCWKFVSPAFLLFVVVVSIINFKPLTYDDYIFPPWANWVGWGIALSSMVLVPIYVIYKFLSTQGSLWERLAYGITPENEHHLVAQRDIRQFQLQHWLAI
# Experimental: as §5, §3, §6, §7
# [9] = molecular target: T8, hNET Q314A (S2 site mutant) (Homo sapiens, UniProt P23975, Q314A); assay: APP+ transport in HeLa cells expressing hNET mutant Q314A; format: cell-based; conditions: intact HeLa cells, read-out: SAG IC50
# T8 construct: expressed in transfected cells; host or cells: HeLa
# T8 sequence (P23975 whole entry Q314A): as the sequence (P23975 whole entry) above, with Q314A counted along it
# Experimental: as §1, §2, §3, §4
substance,measurement,setting,value
(-)-Syringaresinol-4-O-β-D-apiofuranosyl-(1→2)-β-D-glucopyranoside [SAG],IC50,[1],88.1 ± 2.8 µM
same,IC50,[2],152 ± 12 µM
same,IC50,[3],72.4 ± 4.8 µM
same,IC50,[4],25.5 ± 1.2 µM
same,IC50,[5],111 ± 2 µM
same,IC50,[6],239 ± 14 µM
same,IC50,[7],7.88 ± 0.35 µM
same,IC50,[8],40.1 ± 2.8 µM
same,IC50,[9],4.37 ± 1.06 µM
